Paper PMC11632778, “Adaptive Synthesis, Supramolecular Behavior, and Biological Properties of Amphiphilic Carbosilane-Phosphonium Dendrons with Tunable Structure” (Biomacromolecules, 2024)
Read-outs that look alike come from different tables or passages of the source.

Assays:
[1] = tested on: S. aureus MRSA—clinical isolate C1926; assay: Microdilution broth MIC; assay type: cell-based; settings: Staphylococcus aureus, 24 h
E. coli K12, CCM 7929 = assay: Microdilution broth MIC; assay type: cell-based; settings: Escherichia coli
Description: (§1) In vitro antibacterial activity of the prepared amp-DDNs (DnP6-1C12, DnP3-1C12, DnP3-2C12, and DnP3-2C18) was tested on a panel of four G+ (Staphylococcus aureus CCM 4516, methicillin-resistant S. aureus clinical isolate C1923, Staphylococcus epidermidis clinical isolate C1936, and vancomycin-resistant Enterococcus faecium clinical isolate S2484) and four G-bacterial strains (Escherichia coli K12, CCM 7929, E. coli clinical isolate A1235, extended-spectrum β-lactamase-producing (ESBL+) Klebsiella pneumoniae clinical isolate C1914, and multiresistant Pseudomonas aeruginosa clinical isolate A1245). CCM collection strains were obtained from the Czech Collection of Microorganisms. All clinical isolates were obtained during routine procedures in the clinical laboratory at the University Hospital Hradec Králové. All strains were stored at −70 °C in the Cryobank according to the manufacturer’s instructions. Subsequently, when needed, each bacterial strain was inoculated and cultivated on Mueller–Hinton agar (HiMedia, Cadersky-Envitek, Prague, Czech Republic).
(§2) The antibacterial susceptibility was determined by a microdilution broth method according to standard M07-A10,[55] and the optimized protocol has been published previously.[56],[57] Briefly, Mueller–Hinton broth (MHB) adjusted to pH 7.4 (±0.2) was used as the test medium. […] The wells of the microdilution tray contained 200 μL of the MHB with 2-fold serial dilutions of the compounds and were inoculated with 10 μL of the bacterial suspension. The bacterial suspensions were controlled densitometrically to reach 1.5 × 10^8 viable CFU per 1 mL. The minimum inhibitory concentration (MIC) values, defined as 95% inhibition of bacterial growth, were determined after 24 h of incubation at 35 °C ± 1 °C.

[2] = tested on: E. coli—clinical isolate A1235; assay: Microdilution broth MIC; assay type: cell-based; settings: Escherichia coli, 24 h
Description: as §1, §2

[3] = tested on: E. faecium VRE—clinical isolate S2484; assay: Microdilution broth MIC; assay type: cell-based; settings: Enterococcus faecium, 24 h
Description: as §1, §2

[4] = tested on: K. pneumoniae ESBL+—clinical isolate C1914; assay: Microdilution broth MIC; assay type: cell-based; settings: Klebsiella pneumoniae, 24 h
Description: as §1, §2

[5] = tested on: P. aeruginosa MR—clinical isolate A1245; assay: Microdilution broth MIC; assay type: cell-based; settings: Pseudomonas aeruginosa, 24 h
Description: as §1, §2

S. aureus CCM 4516 = assay: Microdilution broth MIC; assay type: cell-based; settings: Staphylococcus aureus
Description: as §1, §2

[6] = tested on: S. epidermidis—clinical isolate C1936; assay: Microdilution broth MIC; assay type: cell-based; settings: Staphylococcus epidermidis, 24 h
Description: as §1, §2

[7] = tested on: anti-miR-21 oligo(2′-O-methylribonucleotide); assay: DLS of dendriplexes with anti-miR-21 oligonucleotide; assay type: physicochemical; settings: for mean diameter of dendriplex: 0.9% NaCl
Description: Dendriplexes were characterized by DLS using Zetasizer Nano-S (Malvern Panalytical, UK) equipped with a 632.8 nm laser, applying detection angle 173°. Mean diameters from the intensity-weighted size distribution are given. Average results from three consecutive sets of measurements generated by Malvern Zetasizer Software version 7.13 are presented.
Amphiphilic dendrons (1.5–73 μM) were mixed with the anti-miR-21:5′-m([…]) (500 nM) in 0.9% NaCl solution in milli-Q water. The dendrons’ concentrations were chosen to attain the charge ratio (CR, the ratio of cations over anions in the sample) of 1.2, 2.5, 5, 10, or 20. The samples were incubated for 15 min at rt prior to measurements.

[8] = Dynamic light scattering (DLS/MADLS) of micelles in physiological solution; assay type: physicochemical
Description: The size of micelles and micellar aggregates was estimated by the dynamic light scattering (DLS) method using NanoBrook OMNI ZetaPALS (Brookhaven Instruments, USA) with a detection angle 90° and 640 nm laser. The presented diameters are mean values from the intensity-weighted size distribution. The composition of the samples was as follows: dendron (1.0 mM) and NaCl (0.9%) in deionized water. The solutions were sonicated for 30 min, filtered through 0.45 μm Nylon syringe filters (Avantor, USA), placed in standard polystyrene cuvettes (BI-SCP, Brookhaven Instruments), and stored at 4 °C. All measurements were conducted at 25 °C. Measurement time was set to 5 min, and each measurement was repeated 5 times. The analysis of data was performed using Brookhaven Instruments software Particle Solutions v3.6.07136.
MADLS and size dependence on concentration and pH were measured on Zetasizer Ultra Red (Malvern Panalytical, UK) equipped with a 632.8 nm laser, applying detection angles 12.78°, 90°, and 174.7° in the case of MADLS measurements and 12.78° for size dependence measurements. MADLS and concentration dependence were measured in DTS0012 polystyrene cuvettes (Malvern Panalytical, UK); pH dependence was studied by acidobasic titration in DTS1070 folded capillary Zeta cell, using MPT-3 Multipurpose Titrator and DEG0003 Auto Degasser (all Malvern Panalytical, UK). The concentration dependence measurement started at 1.0 mM and the samples were diluted 2-fold until the minimum concentration 0.06 mM. For each concentration, the measurement was repeated 3 times giving 15 measurements in total. The pH dependence measurement started at pH 12; the titration was performed with a step of 2 and at each step, the measurement was repeated 3 times, giving 18 measurements in total. Malvern Panalytical software ZS Xplorer version 3.3.1.5 was used for the analysis of data.

[9] = design: method as in doi:10.1016/j.colsurfa.2004.10.066; settings: standard cationic surfactant; cited from earlier work
[10] = 95% inhibition of growth, read-out: MIC

SMILES | MIC [1] [µM] | MIC (E. coli K12, CCM 7929; CCM7929, 24 h) [µM] | MIC [2] [µM] | MIC [3] [µM] | MIC [4] [µM] | MIC [5] [µM] | MIC (S. aureus CCM 4516; CCM4516, 24 h) [µM] | MIC [6] [µM] | PI of dendriplex ([7]; CR 1.2) | mean diameter of dendriplex ([7]; CR 1.2, anti-miR-21 500 nM) [μm] | PI of dendriplex ([7]; CR 2.5) | mean diameter of dendriplex ([7]; CR 2.5, anti-miR-21 500 nM) [μm] | PI of dendriplex ([7]; CR 5) | mean diameter of dendriplex ([7]; CR 5, anti-miR-21 500 nM) [μm] | PI of dendriplex ([7]; CR 10) | mean diameter of dendriplex ([7]; CR 10, anti-miR-21 500 nM) [μm] | also measured
CCCCCCCCCCCCNC(=O)c1cc(OCCC[Si](CCCSCC(=O)NCCC[P+](c2ccccc2)(c2ccccc2)c2ccccc2)(CCCSCC(=O)NCCC[P+](c2ccccc2)(c2ccccc2)c2ccccc2)CCCSCC(=O)NCCC[P+](c2ccccc2)(c2ccccc2)c2ccccc2)cc(OCCC[Si](CCCSCC(=O)NCCC[P+](c2ccccc2)(c2ccccc2)c2ccccc2)(CCCSCC(=O)NCCC[P+](c2ccccc2)(c2ccccc2)c2ccccc2)CCCSCC(=O)NCCC[P+](c2ccccc2)(c2ccccc2)c2ccccc2)c1 [DnP6-1C12] | 6.25 | 6.25 | 6.25 | 3.13 | 12.5 | ≥ 12.5 | 6.25 | 1.56 | 0.08 | 0.22 | 0.2 | 0.8 | 0.10 | 0.8 | 0.05 | 0.8 | 
CCCCCCCCCCCCCCCCCCNC(=O)c1ccc(OCCC[Si](CCCSCC(=O)NCCC[P+](c2ccccc2)(c2ccccc2)c2ccccc2)(CCCSCC(=O)NCCC[P+](c2ccccc2)(c2ccccc2)c2ccccc2)CCCSCC(=O)NCCC[P+](c2ccccc2)(c2ccccc2)c2ccccc2)cc1 [DnP3-1C18] | 6.25 |  |  | 6.25 | > 6.25 | > 6.25 |  |  | 0.14 | 0.23 | 0.2 | 0.5 | 0.4 | > 1 | 0.3 | > 1 | MIC (E. coli K12, CCM 7929; CCM7929, 24 h, 95% inhibition of growth, read-out: MIC): > 6.25 µM; MIC [2, 10]: > 6.25 µM; MIC (S. aureus CCM 4516; CCM4516, 24 h, 95% inhibition of growth, read-out: MIC): 6.25 µM; MIC [6, 10]: 3.13 µM
CCCCCCCCCCCCNC(=O)c1cc(OCCC[Si](CCCSCC(=O)NCCC[P+](c2ccccc2)(c2ccccc2)c2ccccc2)(CCCSCC(=O)NCCC[P+](c2ccccc2)(c2ccccc2)c2ccccc2)CCCSCC(=O)NCCC[P+](c2ccccc2)(c2ccccc2)c2ccccc2)cc(C(=O)NCCCCCCCCCCCC)c1 [DnP3-2C12] | > 12.5 | > 12.5 | > 12.5 | > 12.5 | > 12.5 | > 12.5 | > 12.5 | > 12.5 | 0.11 | 0.13 | 0.2 | 0.8 | 0.3 | 1.0 | 0.14 | 0.18 | PDI ([8]; 1.0 mM dendron, 0.9% NaCl): ≈ 0.2; mean size (DLS, intensity-weighted) ([8]; 1.0 mM dendron, 0.9% NaCl, 25 °C, start of testing period): 21 nm; mean size (DLS, intensity-weighted) ([8]; 1.0 mM dendron, 0.9% NaCl, after 75 day testing period, stored at 4 °C): 25 nm; mean size of the second population (MADLS) ([8]; aggregates): 37 nm; mean diameter of the smaller particles (MADLS) ([8]; isolated micelles): 10.0 nm; PI of dendriplex ([7]; CR 20): 0.17; mean diameter of dendriplex ([7]; CR 20, anti-miR-21 500 nM): 0.14 μm
CCCCCCCCCCCCCCCC[N+](C)(C)C [cetyltrimethylammonium bromide] |  |  |  |  |  |  |  |  |  |  |  |  |  |  |  |  | CMC [9]: around 1 mM
